12 compounds from PubChem BioAssay (NCI) can be followed below.

Some test systems named below: UACC-257 melanoma; SK-MEL-5 melanoma; K-562 leukemia; A549 NSCLC; SN12C renal; SF-295 CNS; UACC-62 melanoma; HL-60(TB) leukemia.
Common to all, as to test: growth of human tumour cells (NCI), 48 h

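Method: 48-hour compound exposure of cells in 96-well plates, five concentrations, linear interpolation of endpoints. GI50 = concentration required for 50% inhibition of growth. TGI: concentration producing complete growth inhibition.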

As to `COc1cccc(-c2cc3c4c(nc5ccccc53)C(=O)c3cccnc3-c4n2)c1`, the GI50 with UACC-257 melanoma was 1.06 µM; in the assay on SK-MEL-5 melanoma, 0.578 µM; in the assay with K-562 leukemia it was 1.82 µM; in the assay with A549 NSCLC, 1.44 µM; with SN12C renal, 2.44 µM; with SF-295 CNS, 2.34 µM. For the same compound, the GI50 in the assay on UACC-62 melanoma is 3.88 µM. The TGI is 4.33 µM in the assay with UACC-257 melanoma; 1.76 µM in the assay on SK-MEL-5 melanoma; > 100 µM in the assay with K-562 leukemia; 3.82 µM with A549 NSCLC; 6.54 µM with SN12C renal; 6.44 µM with SF-295 CNS. Moreover, the TGI in the assay on UACC-62 melanoma came out at 10.5 µM.
On to `COc1cc([N+](=O)[O-])c(OC)cc1-c1nc2sccn2c1/C=N/N=C(N)N`, for which the GI50 in the assay on UACC-257 melanoma was 21.5 µM; in the assay with SK-MEL-5 melanoma, 33.7 µM; with K-562 leukemia, 1.03 µM; in the assay on A549 NSCLC, 20.8 µM; in the assay on SN12C renal it was 9.36 µM; in the assay on SF-295 CNS, 19.5 µM. The GI50 in the assay on UACC-62 melanoma is 27.7 µM. For the same compound, the TGI is 54.2 µM in the assay with UACC-257 melanoma; > 100 µM with SK-MEL-5 melanoma; > 100 µM in the assay with K-562 leukemia; 68.7 µM with A549 NSCLC; 42.1 µM in the assay on SN12C renal; > 100 µM with SF-295 CNS. This compound also had a TGI with UACC-62 melanoma of 70.5 µM.
On to `COc1ccc(C(=O)/C=C/c2cccc(Nc3ccnc4cc(Cl)ccc34)c2)cc1`, for which the GI50 in the assay on K-562 leukemia was 1.64 µM; in the assay on A549 NSCLC, 2.78 µM; in the assay with HL-60(TB) leukemia it was 2.98 µM; in the assay on SF-295 CNS, 0.694 µM. For the same compound, the TGI with K-562 leukemia is 18.1 µM; in the assay with A549 NSCLC it was > 100 µM; in the assay with HL-60(TB) leukemia it was > 100 µM; with SF-295 CNS it was 16.3 µM.
For `Oc1c(Cl)c(Cl)c(O)c2c1CCCC2`, the TGI came to 30.5 µM with UACC-257 melanoma; 25.7 µM with SK-MEL-5 melanoma; 72.6 µM with A549 NSCLC; 30.2 µM with SN12C renal; 37.6 µM in the assay with SF-295 CNS; 27 µM in the assay with UACC-62 melanoma.
For the compound `Cn1cc(-c2csc(-c3cn(CCCN4CCCCC4)c4ccccc34)n2)c2cccnc21`, the GI50 in the assay with UACC-257 melanoma is 1.96 µM; with SK-MEL-5 melanoma, 1.82 µM; with A549 NSCLC, 1.97 µM; in the assay with SN12C renal, 1.79 µM; with SF-295 CNS it was 1.71 µM; in the assay on UACC-62 melanoma, 1.87 µM. Moreover, the TGI turned out to be 3.65 µM in the assay on UACC-257 melanoma; 3.26 µM in the assay on SK-MEL-5 melanoma; 3.6 µM in the assay on A549 NSCLC; 3.31 µM with SN12C renal; 3.18 µM in the assay on SF-295 CNS; 3.46 µM in the assay with UACC-62 melanoma.
On to `COc1ccc(N(/C=C/C(=O)C(F)(F)F)CC(=O)c2ccc(F)cc2)cc1`, for which the GI50 is 23.7 µM in the assay with UACC-257 melanoma; 14.8 µM with SK-MEL-5 melanoma; 32 µM in the assay with A549 NSCLC; 14.7 µM with SN12C renal; 27.4 µM in the assay on SF-295 CNS; 12 µM in the assay on UACC-62 melanoma. Moreover, the TGI was 64.8 µM in the assay on UACC-257 melanoma; 32 µM in the assay on SK-MEL-5 melanoma; > 100 µM with A549 NSCLC; 33.8 µM with SN12C renal; 91 µM with SF-295 CNS; 38.3 µM in the assay on UACC-62 melanoma.
Turning to `CN1CCc2[nH]nc(-c3n[nH]c4c3CN(C)CC4)c2C1`, the TGI in the assay with UACC-257 melanoma, in the assay with SK-MEL-5 melanoma, with K-562 leukemia, in the assay with A549 NSCLC, in the assay on SN12C renal and in the assay on SF-295 CNS was > 100 µM each time. Further, the TGI with UACC-62 melanoma is > 100 µM.
Take `COc1cc(OC)c(C(=O)/C=C/c2cccc(C#N)c2)c(OC)c1`: the GI50 in the assay on UACC-257 melanoma is 2.1 µM; in the assay on SK-MEL-5 melanoma, 1.55 µM; in the assay with K-562 leukemia it was 0.384 µM; with A549 NSCLC, 1.43 µM; in the assay with SN12C renal it was 1.5 µM; in the assay with SF-295 CNS it was 1.31 µM. Further, the GI50 in the assay on UACC-62 melanoma was 1.22 µM. For the same compound, the TGI in the assay on UACC-257 melanoma is 8.69 µM; in the assay on SK-MEL-5 melanoma, 6.16 µM; in the assay with K-562 leukemia it was > 50 µM; in the assay with A549 NSCLC it was 6.1 µM; with SN12C renal, 7.1 µM; with SF-295 CNS, 5.51 µM. This compound gave a TGI in the assay on UACC-62 melanoma of 4.92 µM.
With `NCCN.O=C([O-])CN1CCOCC1.[OH-].[Pt+4]`, the GI50 with UACC-257 melanoma is > 100 µM; with SK-MEL-5 melanoma it was > 100 µM; in the assay with A549 NSCLC, > 100 µM; with SN12C renal, > 100 µM; in the assay on HL-60(TB) leukemia, 15.8 µM; in the assay with SF-295 CNS, > 100 µM. Further, the GI50 in the assay with UACC-62 melanoma is > 100 µM. Moreover, the TGI with UACC-257 melanoma, in the assay on SK-MEL-5 melanoma, with A549 NSCLC, in the assay on SN12C renal, with HL-60(TB) leukemia and in the assay on SF-295 CNS was > 100 µM throughout. For the same compound, the TGI in the assay with UACC-62 melanoma is > 100 µM.
Regarding `COc1cnc2c(c1)C(=O)c1c-2n(CCCNC2=NCCS2)c(=O)c2cc(Cl)ccc12`, the GI50 in the assay with UACC-257 melanoma was 1.53 µM; with SK-MEL-5 melanoma it was 0.812 µM; in the assay with A549 NSCLC, 1.2 µM; with HL-60(TB) leukemia, 0.656 µM; in the assay with SF-295 CNS it was 0.0776 µM; in the assay on UACC-62 melanoma it was 0.0953 µM. Further, the TGI in the assay on UACC-257 melanoma was 3.11 µM; in the assay on SK-MEL-5 melanoma, 2.12 µM; in the assay with A549 NSCLC, 2.51 µM; with HL-60(TB) leukemia it was 3.39 µM; in the assay on SF-295 CNS, 1.07 µM; in the assay on UACC-62 melanoma it was 1.94 µM.
For the compound `Cc1cn2c(/C=C3/C(=O)Nc4ccc(O)cc43)c(C)nc2s1`, the GI50 was 7.85 µM in the assay on UACC-257 melanoma; 1.4 µM in the assay on SK-MEL-5 melanoma; 0.362 µM in the assay on K-562 leukemia; 19.9 µM in the assay with A549 NSCLC; 3.79 µM with SN12C renal; 1.73 µM with SF-295 CNS. In addition, in the assay with UACC-62 melanoma, the GI50 is 1.16 µM. For the same compound, the TGI was > 47.1 µM with UACC-257 melanoma; 7.74 µM in the assay with SK-MEL-5 melanoma; > 61.8 µM in the assay with K-562 leukemia; > 80.6 µM in the assay with A549 NSCLC; 41.4 µM with SN12C renal; 8.08 µM in the assay on SF-295 CNS. Also, the TGI with UACC-62 melanoma was determined as 11.4 µM.
With `Cc1nn(C)c(COc2ccc(N3CCN(S(=O)(=O)N(C)C)CC3)cc2)c1-c1cccc2c(CCCOc3cccc4ccccc34)c(C(=O)O)n(CCN3CCOCC3)c12`, the GI50 is 2.91 µM with UACC-257 melanoma; 2.44 µM in the assay on SK-MEL-5 melanoma; 3.84 µM with K-562 leukemia; 4.49 µM in the assay with A549 NSCLC; 3.25 µM with SN12C renal; 2.45 µM in the assay on HL-60(TB) leukemia. Besides, the GI50 with SF-295 CNS is 2.78 µM. For the same compound, the TGI was 9.52 µM in the assay on UACC-257 melanoma; 5.96 µM in the assay on SK-MEL-5 melanoma; > 100 µM in the assay on K-562 leukemia; 16.9 µM in the assay on A549 NSCLC; 12.4 µM in the assay with SN12C renal; 6.07 µM in the assay with HL-60(TB) leukemia. For the same compound, the TGI in the assay on SF-295 CNS worked out at 10.2 µM.
